US20240082268A1, “METHODS AND COMPOSITIONS FOR CONTROLLING NEUROINFLAMMATION” (Invenux, LLC, priority 2021, published 2024)

Experiments:
[1] = system: GFAP (astrocyte activation); test: GFAP immunoreactivity in brain slices, mouse model of MPS IIIB; format: in vivo
Protocol: (§1) Brain slices were taken along the rostro caudal axis in a serial section. Quantification using the brain slices was performed using Image Pro Premiere software.
(§2) The breeding pairs of MPS IIIB mice were obtained from Jackson Laboratory (JAX stock #003827) and a MPS IIIB mouse colony was established. In MPS IIIB or Sanfillipo syndrome mice, both alleles of alpha-N-acetylglucosaminidase (NAGLU) are disrupted, knocked out (KO), by insertion of a neomycin resistance gene via homologous recombination. Gografe S I; Garbuzova-Davis S; Willing A E; Haas K; Chamizo W; Sanberg P R. Mouse model of Sanfilippo syndrome type B: relation of phenotypic features to background strain Comp Med 53(6):622-32. […] The heterozygous (Het) mice have only one allele of the NAGLU gene disrupted and can fully metabolize HS.
(§3) FIG. 1A and FIG. 1B show bar graphs of the percentage staining of Cluster of Differentiation 68 (CD68) and glial fibrillary acidic protein (GFAP), respectively, in serial section (one every twelve sections of 40 um thick) along the rostrocaudal axis of the brain after 30 days. […]
(§4) Quantification of brain slices was performed using Image Pro Premiere software.
(§5) After 30 days, animals were sacrificed and brain slices were taken along the rostro caudal axis in a serial section. Quantification was performed using Image Pro Premiere software.

[2] = system: CD68 (microglia activation); test: CD68 immunoreactivity in brain slices, mouse model of MPS IIIB; format: in vivo
Protocol: as §1, §2, §3, §4, §5

[3] = molecular target: voltage-gated sodium channel Nav 1.6 receptor (Homo sapiens, UniProt Q9UQD0); settings: cited from earlier work
Sequence of voltage-gated sodium channel Nav 1.6 receptor (Q9UQD0 whole entry): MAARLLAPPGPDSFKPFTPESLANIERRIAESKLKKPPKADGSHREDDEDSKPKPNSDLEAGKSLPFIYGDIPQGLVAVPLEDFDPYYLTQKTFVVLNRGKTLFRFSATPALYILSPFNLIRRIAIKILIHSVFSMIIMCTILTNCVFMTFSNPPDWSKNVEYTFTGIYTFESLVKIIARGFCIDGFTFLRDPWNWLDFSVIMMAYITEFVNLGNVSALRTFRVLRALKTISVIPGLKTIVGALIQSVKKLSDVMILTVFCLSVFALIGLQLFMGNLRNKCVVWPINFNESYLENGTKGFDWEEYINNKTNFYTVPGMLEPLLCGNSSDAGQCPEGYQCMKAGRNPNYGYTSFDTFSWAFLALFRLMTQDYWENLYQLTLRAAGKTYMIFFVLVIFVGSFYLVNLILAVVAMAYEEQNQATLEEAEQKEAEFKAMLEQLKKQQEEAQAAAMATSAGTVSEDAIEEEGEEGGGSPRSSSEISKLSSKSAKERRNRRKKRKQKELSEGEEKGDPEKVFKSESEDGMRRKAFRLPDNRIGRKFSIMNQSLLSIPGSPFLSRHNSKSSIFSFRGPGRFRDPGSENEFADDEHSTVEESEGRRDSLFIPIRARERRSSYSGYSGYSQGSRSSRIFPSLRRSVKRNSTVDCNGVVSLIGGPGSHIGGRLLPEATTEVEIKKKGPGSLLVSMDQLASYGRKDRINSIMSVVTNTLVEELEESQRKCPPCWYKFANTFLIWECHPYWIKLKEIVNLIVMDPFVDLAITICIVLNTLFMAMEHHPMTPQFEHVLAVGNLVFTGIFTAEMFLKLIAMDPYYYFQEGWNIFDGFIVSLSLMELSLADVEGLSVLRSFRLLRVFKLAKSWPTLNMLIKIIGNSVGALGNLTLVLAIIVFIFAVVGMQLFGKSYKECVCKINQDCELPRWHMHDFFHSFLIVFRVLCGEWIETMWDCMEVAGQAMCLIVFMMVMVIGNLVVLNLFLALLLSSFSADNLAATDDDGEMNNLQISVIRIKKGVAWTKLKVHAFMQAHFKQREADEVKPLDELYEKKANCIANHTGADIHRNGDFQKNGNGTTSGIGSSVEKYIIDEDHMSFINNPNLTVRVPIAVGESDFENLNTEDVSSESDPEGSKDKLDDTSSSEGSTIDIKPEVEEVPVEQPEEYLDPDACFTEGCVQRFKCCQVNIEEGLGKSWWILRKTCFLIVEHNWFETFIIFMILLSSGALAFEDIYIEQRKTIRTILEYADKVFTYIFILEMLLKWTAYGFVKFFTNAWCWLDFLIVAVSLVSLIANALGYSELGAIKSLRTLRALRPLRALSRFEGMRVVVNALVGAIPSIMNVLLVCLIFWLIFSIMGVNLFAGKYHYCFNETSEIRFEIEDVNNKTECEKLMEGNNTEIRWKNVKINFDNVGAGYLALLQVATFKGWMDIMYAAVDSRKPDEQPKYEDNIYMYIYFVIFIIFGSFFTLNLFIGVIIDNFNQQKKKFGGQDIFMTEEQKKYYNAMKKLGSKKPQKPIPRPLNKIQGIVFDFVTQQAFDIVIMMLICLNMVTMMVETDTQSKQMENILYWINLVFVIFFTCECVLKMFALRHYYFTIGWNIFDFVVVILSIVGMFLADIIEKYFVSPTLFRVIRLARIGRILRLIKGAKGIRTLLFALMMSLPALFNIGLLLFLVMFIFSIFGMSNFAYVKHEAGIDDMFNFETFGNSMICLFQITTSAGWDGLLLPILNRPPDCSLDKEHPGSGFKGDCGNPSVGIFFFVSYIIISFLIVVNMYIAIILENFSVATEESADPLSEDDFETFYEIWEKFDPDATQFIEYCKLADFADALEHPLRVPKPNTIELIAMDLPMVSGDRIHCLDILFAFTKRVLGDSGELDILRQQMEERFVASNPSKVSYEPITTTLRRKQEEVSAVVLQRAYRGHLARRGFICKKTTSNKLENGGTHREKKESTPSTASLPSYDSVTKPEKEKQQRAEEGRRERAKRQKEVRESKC

[4] = molecular target: CB2 endocannabinoid receptor (Homo sapiens, UniProt P34972); settings: cited from earlier work
Sequence of CB2 endocannabinoid receptor (P34972 whole entry): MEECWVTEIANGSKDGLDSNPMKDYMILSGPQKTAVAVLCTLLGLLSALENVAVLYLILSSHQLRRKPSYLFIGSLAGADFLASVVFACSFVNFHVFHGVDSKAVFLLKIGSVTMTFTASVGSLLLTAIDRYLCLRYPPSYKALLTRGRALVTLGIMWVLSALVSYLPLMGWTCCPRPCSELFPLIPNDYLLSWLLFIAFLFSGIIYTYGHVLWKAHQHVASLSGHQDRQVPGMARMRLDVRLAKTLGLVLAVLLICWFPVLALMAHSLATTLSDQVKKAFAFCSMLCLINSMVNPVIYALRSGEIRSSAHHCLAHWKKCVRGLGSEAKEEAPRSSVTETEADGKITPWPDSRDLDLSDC

MPS IIIB KO mice = test: Behavioral and cognitive tests in mouse model of MPS IIIB; format: in vivo; settings: MPS IIIB KO mice, 100, 33 or 10 mg/kg/day oral, after 6 months, vs vehicle control
Protocol: CBD or vehicle is administered daily by oral gavage. […] At baseline, and after 3, 6, and 9 months, the mice are given behavioral tests to measure hyperactive and social interaction, and cognitive tests to measure spatial memory and learning deficits.

[5] = system: inflammatory signaling molecules; test: Inflammatory signaling molecules in plasma and CSF, mouse model of MPS IIIB; format: in vivo; settings: MPS IIIB KO mice, 100, 33 or 10 mg/kg/day oral, after 6 months, vs vehicle control
Description: In particular, less of one or more of IL-1alpha, IL1beta, IL-2, IL-4, IL-6, IL-8, 11-10, IL-17A, IL-23, INF-gamma, MCP-1, caspase-1, caspase-3, TNF-alpha, and TGF-beta-alpha is expected.

[6] = in vivo; cited from earlier work
[7] = 9-month old MPS IIIB KO mice, 100 mg/kg CBD in sesame oil, oral gavage once daily for 30 days, vs KO mice given vehicle
[8] = MPS IIIB KO mice, 100 mg/kg oral, 30 days, representative brain slices

Compound	decrease in the immunoreactivity of GFAP (% area) in brain [1, 7] [%]	astrocyte cell neuroinflammation and activation (GFAP) [1, 8]	decrease in the immunoreactivity of CD68 (% area) in brain [2, 7] [%]	microglia cell neuroinflammation and activation (CD68) [2, 8]	IC50 [3] [µM]	affinity to Nav 1.6 receptor [3]	affinity to CB2 receptor [4]	hyperactivity (MPS IIIB KO mice)	learning deficit (MPS IIIB KO mice)	social interaction (MPS IIIB KO mice)	spatial memory (MPS IIIB KO mice)	inflammatory signaling molecules in plasma and CSF [5]	crossing of the BBB [6]
C=C(C)[C@@H]1CCC(C)=C[C@H]1c1c(O)cc(CCCCC)cc1O [CBD, Cannabidiol]	50	significantly decreases	30	significantly decreases	1 to 6	uM affinity	uM affinity	less hyperactivity	less learning deficit	more social interaction	less loss of spatial memory	less inflammatory signaling molecules	–
Adalimumab	–	–	–	–	–	–	–	–	–	–	–	–	does not cross the BBB
